This is an account of results in US6063784A, “Heteroaryloxyethylamines, method of preparation, application as medicine and pharmaceutical compositions containing them” (Societe de Conseils de Recherches et D'Applications …, priority 1996, dated 2000).

The target in this test is T1, serotonergic 5-HT1A receptors (Rattus norvegicus, UniProt P19327).
T1 construct: from tissue; host or cells: cerebral cortex membranes of male Sprague Dawley rats
T1 sequence (P19327 1-422): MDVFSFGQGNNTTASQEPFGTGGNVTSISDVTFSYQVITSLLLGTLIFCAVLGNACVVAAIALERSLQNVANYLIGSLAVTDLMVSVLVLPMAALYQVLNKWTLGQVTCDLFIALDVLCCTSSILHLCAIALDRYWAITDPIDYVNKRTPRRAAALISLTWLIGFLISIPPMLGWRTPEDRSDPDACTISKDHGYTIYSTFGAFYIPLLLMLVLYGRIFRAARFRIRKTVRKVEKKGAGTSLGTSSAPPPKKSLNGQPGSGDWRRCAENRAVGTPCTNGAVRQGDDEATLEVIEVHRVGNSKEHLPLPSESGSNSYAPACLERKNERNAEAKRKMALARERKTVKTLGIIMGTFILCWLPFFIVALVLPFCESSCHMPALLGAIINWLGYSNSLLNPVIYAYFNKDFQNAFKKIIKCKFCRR
The test is described as follows: Affinity for the 5-HT1A receptor: inhibition of [3H]8-OH-DPAT binding to rat cerebral cortex membranes. Further details: species or system rat (male Sprague Dawley). The settings on record: [3H]8-OH-DPAT 1 nM, 30 min at 25° C., Tris-HCl 50 mM, pH=7.4. How it is done:
The affinity of the compounds for serotonergic 5-HT1A receptors is determined by measuring the inhibition of [3H]8-hydroxy-2(di-n-propylamino)tetralin([3H]8-OH-DPAT) bound to the cerebral cortex of the rat, according to the method of Peroutka and his coworkers [(J. Neurochem., 47, 529 (1986)].
Cerebral cortices of male Sprague Dawley rats are homogenised in Tris-HCl 50 mM, pH=7.4 and centrifuged at 40,000 g for 10 min at 4° C. Pellets are resuspended in the same buffer and incubated for 10 min at 37° C., and the homogenised products are centrifuged again at 40,000 g for 10 min at 4° C.
Competitive inhibition tests of [3H]8-OH-DPAT binding are carried out three times with unlabelled competitors, with concentrations between 100 pM and 100 µM. Cerebral cortex membranes of rats (10 mg wet weight/ml) are incubated with [3H]8-OH-DPAT (1 nM) for 30 min at 25° C. in Tris-HCl 50 mM, pH=7.4 containing 4 mM of CaCl2, 10 µM of pargyline and 0.1% of ascorbic acid.
The bound [3H]8-OH-DPAT is separated from free [3H]8-OH-DPAT by immediate filtration by means of Whatman GF/B glass fibre filters using a Brandel cell recovery device. The filters are washed three times with the same buffer at 0-4° C. and their radioactivity is studied by means of a liquid scintillation spectrometer.
The specific binding is obtained by subtracting the binding determined in the presence of 1 M of 8-OH-DPAT from the total binding. The characteristics of the binding are analysed by iterative analysis of the non-linear regression by computer, using the Ligand program [Munson and Rodbard, Anal. Biochem., 107, 220 (1980)].
Take `CC(C)(C)C(=O)NCCCCNCCOc1cccc2cccnc12` [Compound 1, N-[4-({2-(8-quinolyloxy)ethyl}amino)butyl]tert-butanamide]: the Ki (as a rule, a dissociation constant, usually derived from enzyme kinetics or from competition with a known ligand) is 0.081 nM.

`CC(C)(C)CC(=O)NCCCCNCCOc1cccc2cccnc12` [Compound 2] showed a Ki of 0.12 nM.

Molecule `O=C(NCCCCNCCOc1cccc2cccnc12)C1CCCCC1` [Compound 3, N-[4-({2-(8-quinolyloxy)ethyl}amino)butyl]cyclohexanamide] returned a Ki of 0.15 nM.

The molecule `CC1(C(=O)NCCCCNCCOc2cccc3cccnc23)CCCCC1` [Compound 4] had a Ki of 0.11 nM.

Take `O=C(NCCCCNCCOc1cccc2cccnc12)c1ccccc1` [Compound 5, N-[4-({2-(8-quinolyloxy)ethyl}amino)butyl]benzamide]: the Ki is 0.055 nM.

`CC(C)(C)CC(=O)NCCCCNCCOc1ccc(Cl)c2cccnc12` [Compound 6] registered an inhibition constant (Ki) of 0.98 nM.

Regarding `Cc1ccc2cccc(OCCNCCCCNC(=O)CC(C)(C)C)c2n1` [Compound 7], the affinity, expressed as Ki, was 0.35 nM.

`O=C(NCCCCNCCOc1cccc2nccnc12)c1ccccc1` [Compound 9, N-[4-({2-(5-quinoxalyloxy)ethyl}amino)butyl]benzamide] displayed a Ki of 0.75 nM.

`O=C(CCCCNCCOc1cccc2cccnc12)NC1CCCCC1` [Compound 11, N-cyclohexyl-5-[(2-{8-quinolyloxy}ethyl)amino]pentanamide] showed an inhibitory constant (Ki) of 0.072 nM.

In turn, `CC(C)(C)CNC(=O)CCCCNCCOc1cccc2cccnc12` [Compound 12, N-neopentyl-5-[(2-{8-quinolyloxy}ethyl)amino]pentanamide] returned a Ki of 0.09 nM.

`CC(C)(C)CNC(=O)CCCCNCCOc1cccc2nccnc12` [Compound 13, N-neopentyl-5-[(2-{5-quinoxalyloxy}ethyl)amino]pentanamide] displayed a Ki of 0.48 nM.
